These are literature values, as cited in patent US9682051B2, “Acyclovir and meloxicam combination therapy for functional somatic syndromes” (INNOVATIVE MED CONCEPTS, LLC, priority 2012, dated 2017).

The series relates to fibromyalgia patients. Particulars: valacyclovir alone.

Consider `CC(C)[C@H](N)C(=O)OCCOCn1cnc2c(=O)[nH]c(N)nc21` [valacyclovir], for which the “Outcome of treating fibromyalgia patients” value is on record as “not successful”.
